Experimental data published in patent US20140271604A1, “HDAC Inhibitor Polymorphic Forms and Methods of Use” (priority 2013, published 2014).
“Also recorded” adds a separate entry of the source. Blank lines part the entries; values can stand above or below the compound they belong to.

Tests used:
[1] = Concentration of saturated AR42 stock solutions (anti-solvent addition crystallization); type: physicochemical; details: equilibrated 24 hours, filtered
Protocol: Tables 3-5 illustrate anti-solvent addition crystallization experiments conducted on the indicated Form. In this example, saturated solutions of AR42 were prepared in the following solvents: Acetone, 2-Butanone, Methanol, Ethanol, Isopropanol, Acetonitrile, 1,4-Dioxane and Dimethylformamide. Excess AR42 was added to the solvent and the suspension equilibrated for 24 hours. After equilibration, the suspension was filtered through a […] filter to remove particulate solids.
An equal volume of anti-solvent selected from the following list was added to 300 μL of the saturated solutions of AR42: Toluene, Nitrobenzene, Nitromethane, Water, n-Heptane, Cyclohexane. An additional 300 μL of anti-solvent was added if no precipitation occurred. Aliquots of 300 μL of anti-solvent were added until precipitation occurred or the total volume was 1,200 μL of anti-solvent. The solution was allowed to incubate for 60 minutes at room temperature in between the addition of anti-solvent. If no precipitation occurred after the last addition of anti-solvents, samples were incubated for 24 hours at 4° C. Samples in which precipitation occurred were centrifuged for 10 minutes at 3000 rpm to separate the liquid from the solid. The liquid phase was removed and the solid phase dried and analyzed by XRPD. The solutions in which no precipitation occurred were placed under deep vacuum and dried to completion. Solids were collected and analysed by XRPD.

tumors = details: cited from earlier work
[2] = Solubility assessment experiments in organic solvents
Protocol: (§1) Solubility assessment experiments were carried out in a variety of solvents followed by storage in a climate chamber for 48 to 72 hours at 40 degrees centigrade and 75% relative humidity.

[3] = Stability study in climate chamber (48-72 h, 40° C./75% RH), form assigned by XRPD; details: for XRPD Form b: form assigned after the stability studies / XRPD Form c: form assigned after the stability studies: at 40° C./75% RH; for XRPD Form b: form assigned after the stability studies: samples from anti-solvent addition, label = form before stability
Protocol: as §1

[4] = Storage of samples under ambient conditions, form assigned by XRPD; type: physicochemical
[5] = 48-72 H, samples from cooling-evaporative crystallization, Table 6, label = form after recrystallization
[6] = 1-1.5 weeks ambient, cooling-evaporative crystallization, Table 6, label = form after recrystallization
[7] = 1.5-2 weeks ambient, solvent-drop grinding, Table 8, label = form after grinding
[8] = 46-72 H, samples from solvent-drop grinding, Table 8, label = form after grinding
[9] = 1-1.5 weeks ambient, cooling-evaporative crystallization, Table 7, label = form after recrystallization
[10] = 48-72 H, samples from cooling-evaporative crystallization, Table 7, label = form after recrystallization
[11] = 1-1.5 weeks ambient, slurry conversion, Table 9, label = form after slurry
[12] = 48-72 H, samples from slurry conversion, Table 9, label = form after slurry

Concentration (mg/mL) of saturated stock solution ([1]; stock solvent Acetone): 175.9 mg/mL | Concentration (mg/mL) of saturated stock solution ([1]; stock solvent Acetonitrile): 13.5 mg/mL | Concentration (mg/mL) of saturated stock solution ([1]; stock solvent Butanone 2-): 130.7 mg/mL | Concentration (mg/mL) of saturated stock solution ([1]; stock solvent Dimethylformamide N,N-): 335 mg/mL | Concentration (mg/mL) of saturated stock solution ([1]; stock solvent Dioxane, 1,4-): 46.8 mg/mL | Concentration (mg/mL) of saturated stock solution ([1]; stock solvent Ethanol): 134.1 mg/mL | Concentration (mg/mL) of saturated stock solution ([1]; stock solvent Propanol 2-): 227.8 mg/mL | Concentration (mg/mL) of saturated stock solution ([1]; stock solvent methanol): 390.5 mg/mL | Concentration ([2]; Table 1, solvent Chloroform): <2000 µg/mL | Concentration ([2]; Table 1, solvent Nitromethane): 1000 µg/mL | Concentration ([2]; Table 1, solvent Toluene): <1000 µg/mL | Concentration ([2]; Table 1, solvent Trifluoroethanol, 2,2,2-): 7000 µg/mL
SMILES: CC(C)[C@H](C(=O)Nc1ccc(C(=O)NO)cc1)c1ccccc1 [AR-42, (S)—N-hydroxy-4-(3-methyl-2-phenylbutanamido)benzamide]
Inhibitory effect in tumors (tumors; breast, prostate, ovarian, blood cell, liver, and brain tumors): demonstrated inhibitory effect | Potency and activity compared to vorinostat (SAHA) (tumors; solid tumors and hematological malignancies): greater potency and activity

XRPD Form b: form assigned after the stability studies ([3]; 48-72 H, Table 5): Form A | Concentration ([2]; Table 1, solvent NMP): 482500 µg/mL
SMILES: CC(C)[C@H](C(=O)Nc1ccc(C(=O)NO)cc1)c1ccccc1 [Am_oily]

XRPD Form b: form assigned after storage under ambient conditions ([4]; 1-1.5 weeks ambient, cooling-evaporative crystallization, Table 6, label = form after recrystallization, experiment ML13, solvent 1 Butyl Acetate): Form U1 + Am* | XRPD Form b: form assigned after storage under ambient conditions ([4]; 1-1.5 weeks ambient, cooling-evaporative crystallization, Table 6, label = form after recrystallization, experiment ML14, solvent 1 Chlorobenzene): Form A_wet** | XRPD Form c: form assigned after the stability studies [3, 5]: Form A + Am* | Concentration ([2]; Table 1, solvent Amyl Ether): <1000 µg/mL
SMILES: CC(C)C(C(=O)Nc1ccc(C(=O)NO)cc1)c1ccccc1 (centres unmarked) [Form A + Am]

XRPD Form b: form assigned after storage under ambient conditions [4, 6]: Form B1_wet** | XRPD Form b: form assigned after storage under ambient conditions [4, 7]: Form A_wet** | XRPD Form c: form assigned after the stability studies [3, 8]: Form A | XRPD Form c: form assigned after the stability studies [3, 5]: Form A_wet** | Concentration ([2]; Table 2, solvent Acetone): 108900 µg/mL
SMILES: CC(C)C(C(=O)Nc1ccc(C(=O)NO)cc1)c1ccccc1 (centres unmarked) [Form A + Form B1]

XRPD Form b: form assigned after storage under ambient conditions [4, 6]: Form A | XRPD Form b: form assigned after storage under ambient conditions [4, 9]: Form A | XRPD Form b: form assigned after storage under ambient conditions ([4]; 1.5-2 weeks ambient, solvent-drop grinding, Table 8, label = form after grinding, ground with a drop of Octanol-1): Form A | XRPD Form b: form assigned after storage under ambient conditions ([4]; 1.5-2 weeks ambient, solvent-drop grinding, Table 8, label = form after grinding, ground with a drop of Propyl acetate): Form A5a | XRPD Form c: form assigned after the stability studies [3, 8]: Form A | XRPD Form b: form assigned after the stability studies ([3]; 48-72 H, Table 3): Form A | XRPD Form c: form assigned after the stability studies [3, 10]: Form A | Concentration ([2]; Table 2, solvent Amyl Ether): 18400 µg/mL | Concentration ([2]; Table 2, solvent Dimethyl-4-heptanone 2,6-): 20300 µg/mL | Concentration ([2]; Table 2, solvent Hexafluorobenzene): 21400 µg/mL | Concentration ([2]; Table 2, solvent Nitromethane): 21200 µg/mL | Concentration ([2]; Table 2, solvent Toluene): 18800 µg/mL | Concentration ([2]; Table 2, solvent Trifluoroethanol, 2,2,2-): 20600 µg/mL
SMILES: CC(C)[C@H](C(=O)Nc1ccc(C(=O)NO)cc1)c1ccccc1 [Form A, (S)—N-hydroxy-4-(3-methyl-2-phenylbutanamido)benzamide]

XRPD Form b: form assigned after storage under ambient conditions ([4]; 1-1.5 weeks ambient, cooling-evaporative crystallization, Table 6, label = form after recrystallization, experiment ML7, solvent 1 Dichloroethane): Form A | XRPD Form b: form assigned after storage under ambient conditions ([4]; 1-1.5 weeks ambient, cooling-evaporative crystallization, Table 6, label = form after recrystallization, experiment ML8, solvent 1 Fluorbenzene): Form A_wet** | XRPD Form b: form assigned after storage under ambient conditions ([4]; 1-1.5 weeks ambient, cooling-evaporative crystallization, Table 6, label = form after recrystallization, experiment ML32, solvent 1 Heptane, N-): Form U1 + Am* | XRPD Form b: form assigned after storage under ambient conditions [4, 7]: Form A_wet** | XRPD Form c: form assigned after the stability studies [3, 8]: Form A | XRPD Form b: form assigned after the stability studies ([3]; 48-72 H, Table 3): Form A + Am* | Concentration ([2]; Table 1, solvent Hexafluorobenzene): <1000 µg/mL
SMILES: CC(C)[C@H](C(=O)Nc1ccc(C(=O)NO)cc1)c1ccccc1 [Form A_wet]

Concentration ([2]; Table 2, solvent Dioxane, 1,4-): 32300 µg/mL
SMILES: CC(C)C(C(=O)Nc1ccc(C(=O)NO)cc1)c1ccccc1 (centres unmarked) [Form B1 + Form D1]

XRPD Form b: form assigned after storage under ambient conditions [4, 9]: Form B1 | XRPD Form c: form assigned after the stability studies [3, 10]: Form B1 | Concentration ([2]; Table 1, solvent Dimethyl-4-heptanone 2,6-): 2000 µg/mL | Concentration ([2]; Table 2, solvent Chloroform): 20800 µg/mL
SMILES: CC(C)[C@H](C(=O)Nc1ccc(C(=O)NO)cc1)c1ccccc1 [Form B1, (S)—N-hydroxy-4-(3-methyl-2-phenylbutanamido)benzamide]
Stability after storage in a climate chamber ([3]; 48 to 72 hours at 40 degrees centigrade and 75% relative humidity): exhibited a particular degree of stability

XRPD Form b: form assigned after storage under ambient conditions [4, 9]: Form B1_wet** | XRPD Form b: form assigned after storage under ambient conditions [4, 11]: Form B1 | XRPD Form c: form assigned after the stability studies [3, 12]: Form A5a | Concentration ([2]; Table 2, solvent Isophorone): 243700 µg/mL
SMILES: CC(C)[C@H](C(=O)Nc1ccc(C(=O)NO)cc1)c1ccccc1 [Form B1_wet]

Concentration ([2]; Table 2, solvent Dimethyl Sulfoxide): 472500 µg/mL
SMILES: CC(C)[C@H](C(=O)Nc1ccc(C(=O)NO)cc1)c1ccccc1 [Form C, (S)—N-hydroxy-4-(3-methyl-2-phenylbutanamido)benzamide]

XRPD Form b: form assigned after storage under ambient conditions [4, 9]: Form D1 | XRPD Form b: form assigned after storage under ambient conditions [4, 7]: Form D1 | XRPD Form c: form assigned after the stability studies [3, 8]: Form A | XRPD Form b: form assigned after the stability studies ([3]; 48-72 H, Table 5): Form D2 + Am* | XRPD Form c: form assigned after the stability studies [3, 10]: Form A | Concentration ([2]; Table 2, solvent Nitrobenzene): 19700 µg/mL
SMILES: CC(C)[C@H](C(=O)Nc1ccc(C(=O)NO)cc1)c1ccccc1 [Form D1, (S)—N-hydroxy-4-(3-methyl-2-phenylbutanamido)benzamide]

XRPD Form b: form assigned after storage under ambient conditions [4, 6]: Form U2 + Am* | XRPD Form c: form assigned after the stability studies [3, 5]: Form A_wet**
SMILES: CC(C)[C@H](C(=O)Nc1ccc(C(=O)NO)cc1)c1ccccc1 [Form X_gel, (S)—N-hydroxy-4-(3-methyl-2-phenylbutanamido)benzamide]

XRPD Form b: form assigned after storage under ambient conditions [4, 11]: Form M2 + Am* | XRPD Form c: form assigned after the stability studies [3, 12]: Form M2
SMILES: CC(C)C(C(=O)Nc1ccc(C(=O)NO)cc1)c1ccccc1 (centres unmarked) [Form Y + Am]

XRPD Form b: form assigned after storage under ambient conditions [4, 6]: Form U1 + Am* | XRPD Form c: form assigned after the stability studies [3, 5]: Form Z_wet**
SMILES: CC(C)[C@H](C(=O)Nc1ccc(C(=O)NO)cc1)c1ccccc1 [Form Z_wet]

XRPD Form b: form assigned after storage under ambient conditions [4, 6]: Form D1_wet** | XRPD Form c: form assigned after the stability studies [3, 5]: Form A
SMILES: CC(C)[C@H](C(=O)Nc1ccc(C(=O)NO)cc1)c1ccccc1 [Wet sample]
XRPD Form b: form assigned after the stability studies ([3]; 48-72 H, Table 3): Form A + Am*; also recorded: Form W + Am*
